IC50 data for 30 compounds are collected here from patent US20260217687A1 (NeoPhore Limited, priority 2023, published 2026).

This test addresses T1, recombinant N-terminal MLH1 (residues 15-340) (Homo sapiens, UniProt P40692).
T1 construct: recombinant N-terminal MLH1 (residues 15-340)
T1 sequence (P40692 15-340): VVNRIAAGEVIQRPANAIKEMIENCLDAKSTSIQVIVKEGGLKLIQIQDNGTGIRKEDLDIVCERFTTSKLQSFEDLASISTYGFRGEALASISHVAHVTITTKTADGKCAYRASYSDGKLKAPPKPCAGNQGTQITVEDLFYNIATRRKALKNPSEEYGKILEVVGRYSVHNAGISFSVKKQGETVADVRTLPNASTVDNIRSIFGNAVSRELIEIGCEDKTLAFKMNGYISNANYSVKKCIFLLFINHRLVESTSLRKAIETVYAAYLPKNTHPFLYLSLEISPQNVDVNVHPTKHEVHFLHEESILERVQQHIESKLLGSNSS
Description: Fluorescence Polarisation Assay for MLH1. In kind it is binding. Conditions: 100 nM N-terminal MLH1, 5 nM probe compound. The gist of the method:
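Fluorescence polarisation displacement: 100 nM MLH1 (15-340) preincubated 30 min at room temperature with compound, then 5 nM rhodamine-labelled probe added and read immediately. Buffer 25 mM HEPES pH 7.5, 250 mM NaCl, 10 mM MgCl2, 0.01% Triton X-100, 5 mM DTT; normalised to no-inhibitor and no-enzyme controls.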

Consider `CN1CC(Nc2cccc3c2CN(C(=O)c2c(O)cc(C(F)F)cc2OCc2ccccc2)C3)C1` [Example 4.33], for which the IC50 was in the range of 100 to 1000 nM.

Consider `CNc1cccc2c1CN(C(=O)c1c(O)cc(C(F)F)cc1OCc1ccccc1)C2` [Example 4.34, (2-(Benzyloxy)-4-(difluoromethyl)-6-hydroxyphenyl) (4-(methylamino)isoindolin-2-yl) methanone], for which the IC50 fell in the range of 1000 to 10000 nM.

For `O=C(c1c(O)cc(C(F)F)cc1OCc1ccccc1)N1CCc2ccccc2C1` [Example 4.35, (2-(Benzyloxy)-4-(difluoromethyl)-6-hydroxyphenyl)(3,4-dihydroisoquinolin-2(1H)-yl)methanone], the IC50 lay in the range of 1000 to 10000 nM.

Take `CNc1cccc2c1CN(C(=O)c1c(O)cc(C(F)F)cc1OCc1ccccc1)CC2` [Example 4.36, (2-(Benzyloxy)-4-(difluoromethyl)-6-hydroxyphenyl)(8-(methylamino)-3,4-dihydroisoquinolin-2(1H)-yl)methanone]: the concentration for half-maximal inhibition (IC50) fell in the range of 1000 to 10000 nM.

Regarding `COCCNc1cccc2c1CN(C(=O)c1c(O)cc(C(F)F)cc1OCc1ccccc1)CC2` [Example 4.37, (2-(Benzyloxy)-4-(difluoromethyl)-6-hydroxyphenyl)(8-((2-methoxyethyl)amino)-3,4-dihydroisoquinolin-2(1H)-yl)methanone], the half-inhibitory concentration (IC50) is 1000 to 10000 nM.

Regarding `COc1ccc2c(c1)CN(C(=O)c1c(O)cc(C(F)F)cc1OCc1ccccc1)CC2` [Example 4.38, (2-(Benzyloxy)-4-(difluoromethyl)-6-hydroxyphenyl)(7-methoxy-3,4-dihydroisoquinolin-2(1H)-yl)methanone], the half-maximal inhibitory concentration (IC50) was in the range of 1000 to 10000 nM.

As to `COc1ccc2c(c1)CCN(C(=O)c1c(O)cc(C(F)F)cc1OCc1ccccc1)C2` [Example 4.39, (2-(Benzyloxy)-4-(difluoromethyl)-6-hydroxyphenyl)(6-methoxy-3,4-dihydroisoquinolin-2(1H)-yl)methanone], the half-maximal inhibitory concentration (IC50) lay within 1000 to 10000 nM.

`CN(C)CCOc1ccc2c(c1)CN(C(=O)c1c(O)cc(C(F)F)cc1OCc1ccccc1)CC2` [Example 4.40, (2-(Benzyloxy)-4-(difluoromethyl)-6-hydroxyphenyl)(7-(2-(dimethylamino)ethoxy)-3,4-dihydroisoquinolin-2(1H)-yl)methanone]: the half-maximal inhibitory concentration (IC50) lay within 100 to 1000 nM.

With `CN(C)Cc1ccc2c(c1)CN(C(=O)c1c(O)cc(C(F)F)cc1OCc1ccccc1)CC2` [Example 4.42, (2-(Benzyloxy)-4-(difluoromethyl)-6-hydroxyphenyl)(7-((dimethylamino)methyl)-3,4-dihydroisoquinolin-2(1H)-yl)methanone], the IC50 lay within 100 to 1000 nM.

As to `CN(C)Cc1ccc2c(c1)CCN(C(=O)c1c(O)cc(C(F)F)cc1OCc1ccccc1)C2` [Example 4.43, (2-(Benzyloxy)-4-(difluoromethyl)-6-hydroxyphenyl)(6-((dimethylamino)methyl)-3,4-dihydroisoquinolin-2(1H)-yl)methanone], the half-inhibitory concentration (IC50) fell in the range of 100 to 1000 nM.

Turning to `CN1CCC(Oc2ccc3c(c2)CN(C(=O)c2c(O)cc(C(F)F)cc2OCc2ccccc2)CC3)CC1` [Example 4.44, (2-(Benzyloxy)-4-(difluoromethyl)-6-hydroxyphenyl)(7-((1-methylpiperidin-4-yl)oxy)-3,4-dihydroisoquinolin-2(1H)-yl)methanone], the IC50 fell in the range of 100 to 1000 nM.

For `CN1CCC(Oc2ccc3c(c2)CCN(C(=O)c2c(O)cc(C(F)F)cc2OCc2ccccc2)C3)CC1` [Example 4.45, (2-(Benzyloxy)-4-(difluoromethyl)-6-hydroxyphenyl)(6-((1-methylpiperidin-4-yl)oxy)-3,4-dihydroisoquinolin-2(1H)-yl)methanone], the half-inhibitory concentration (IC50) lay in the range of 100 to 1000 nM.

Regarding `CN1CCN(Cc2ccc3c(c2)CN(C(=O)c2c(O)cc(C(F)F)cc2OCc2ccccc2)CC3)CC1` [Example 4.46, (2-(Benzyloxy)-4-(difluoromethyl)-6-hydroxyphenyl)(7-((4-methylpiperazin-1-yl)methyl)-3,4-dihydroisoquinolin-2(1H)-yl)methanone], the half-maximal inhibitory concentration (IC50) fell in the range of 100 to 1000 nM.

`CN1CCN(Cc2ccc3c(c2)CCN(C(=O)c2c(O)cc(C(F)F)cc2OCc2ccccc2)C3)CC1` [Example 4.47, (2-(Benzyloxy)-4-(difluoromethyl)-6-hydroxyphenyl)(6-((4-methylpiperazin-1-yl)methyl)-3,4-dihydroisoquinolin-2(1H)-yl)methanone]: the 50% inhibitory concentration (IC50) was in the range of 100 to 1000 nM.

Take `O=C(c1c(O)cc(C(F)F)cc1OCc1ccccc1)N1CCc2ccc(Cn3ccnc3)cc2C1` [Example 4.48, (7-((1H-Imidazol-1-yl)methyl)-3,4-dihydroisoquinolin-2(1H)-yl)(2-(benzyloxy)-4-(difluoromethyl)-6-hydroxyphenyl)methanone]: the IC50 lay within 100 to 1000 nM.

Turning to `O=C(c1c(O)cc(C(F)F)cc1OCc1ccccc1)N1CCc2cc(Cn3ccnc3)ccc2C1` [Example 4.49, (6-((1H-Imidazol-1-yl)methyl)-3,4-dihydroisoquinolin-2(1H)-yl)(2-(benzyloxy)-4-(difluoromethyl)-6-hydroxyphenyl)methanone], the IC50 lay within 100 to 1000 nM.

Take `O=C(c1c(O)cc(C(F)F)cc1OCc1ccccc1)N1Cc2ccc(Cn3ccnc3)cc2C1` [Example 4.50, (5-((1H-Imidazol-1-yl)methyl)isoindolin-2-yl)(2-(benzyloxy)-4-(difluoromethyl)-6-hydroxyphenyl)methanone]: the IC50 lay within 100 to 1000 nM.

As to `CN(C)Cc1ccc2c(c1)CN(C(=O)c1c(O)cc(C(F)F)cc1OCc1ccccc1)C2` [Example 4.51, (2-(Benzyloxy)-4-(difluoromethyl)-6-hydroxyphenyl)(5-((dimethylamino)methyl)isoindolin-2-yl)methanone], the half-inhibitory concentration (IC50) lay in the range of 100 to 1000 nM.

For `CN(C)Cc1ccc2c(n1)CN(C(=O)c1c(O)cc(C(F)F)cc1OCc1ccccc1)C2` [Example 4.52, (2-(Benzyloxy)-4-(difluoromethyl)-6-hydroxyphenyl)(2-((dimethylamino)methyl)-5,7-dihydro-6H-pyrrolo[3,4-b]pyridin-6-yl)methanone], the IC50 lay within 100 to 1000 nM.

`O=C(c1c(O)cc(C(F)F)cc1OCc1ccccc1)N1Cc2ccccc2C1` [Example 4.54, (2-(Benzyloxy)-4-(difluoromethyl)-6-hydroxyphenyl)(isoindolin-2-yl)methanone]: the IC50 lay within 1000 to 10000 nM.

In the case of `CN1CC[C@@H](Oc2ccc3c(c2)CN(C(=O)c2c(O)cc(C(F)F)cc2OCc2ccccc2)C3)C1` [Example 4.55, (R)-(2-(Benzyloxy)-4-(difluoromethyl)-6-hydroxyphenyl)(5-((1-methylpyrrolidin-3-yl)oxy)isoindolin-2-yl)methanone], the IC50 is < 100 nM.

For `CN1CC(Oc2ccc3c(c2)CN(C(=O)c2c(O)cc(C(F)F)cc2OCc2ccccc2)C3)C1` [Example 4.57, (2-(Benzyloxy)-4-(difluoromethyl)-6-hydroxyphenyl)(5-((1-methylazetidin-3-yl)oxy)isoindolin-2-yl)methanone], the half-maximal inhibitory concentration (IC50) was < 100 nM.

In the case of `CN1CCC(Oc2ccc3c(c2)CN(C(=O)c2c(O)cc(C(F)F)cc2OCc2ccccn2)C3)CC1` [Example 4.58, (4-(Difluoromethyl)-2-hydroxy-6-(pyridin-2-ylmethoxy)phenyl)(5-((1-methylpiperidin-4-yl)oxy)isoindolin-2-yl)methanone], the IC50 was in the range of 100 to 1000 nM.

Turning to `O=C(c1c(O)cc(C(F)F)cc1OCc1ccccc1)N1Cc2ccc(Oc3ccncc3)cc2C1` [Example 4.60, (2-(Benzyloxy)-4-(difluoromethyl)-6-hydroxyphenyl)(5-(pyridin-4-yloxy)isoindolin-2-yl)methanone], the half-maximal inhibitory concentration (IC50) is 100 to 1000 nM.

With `O=C(c1c(O)cc(C(F)F)cc1OCc1ccccc1)N1Cc2ccc(Oc3ccncn3)cc2C1` [Example 4.61], the IC50 was 100 to 1000 nM.

For the compound `CN1CCC(Oc2cc3c(c(N[C@H]4CCOC4)c2)CN(C(=O)c2c(O)cc(C(F)F)cc2OCc2ccccc2)C3)CC1` [Example 4.62, (S)-(2-(Benzyloxy)-4-(difluoromethyl)-6-hydroxyphenyl)(6-((1-methylpiperidin-4-yl)oxy)-4-((tetrahydrofuran-3-yl)amino)isoindolin-2-yl)methanone], the IC50 was < 100 nM.

For the compound `CN1CCC(Oc2cc3c(c(N[C@@H]4CCOC4)c2)CN(C(=O)c2c(O)cc(C(F)F)cc2OCc2ccccc2)C3)CC1` [Example 4.63, (R)-(2-(Benzyloxy)-4-(difluoromethyl)-6-hydroxyphenyl)(6-((1-methylpiperidin-4-yl)oxy)-4-((tetrahydrofuran-3-yl)amino)isoindolin-2-yl)methanone], the IC50 lay in the range of 100 to 1000 nM.

For `CN1CC[C@H](Oc2ccc3c(c2)CCN(C(=O)c2c(O)cc(C(F)F)cc2OCc2ccccc2)C3)C1` [Example 4.64, (S)-(2-(Benzyloxy)-4-(difluoromethyl)-6-hydroxyphenyl)(6-((1-methylpyrrolidin-3-yl)oxy)-3,4-dihydroisoquinolin-2(1H)yl)methanone], the IC50 lay within 100 to 1000 nM.

As to `CN1CC[C@@H](Oc2ccc3c(c2)CCN(C(=O)c2c(O)cc(C(F)F)cc2OCc2ccccc2)C3)C1` [Example 4.65, (R)-(2-(Benzyloxy)-4-(difluoromethyl)-6-hydroxyphenyl)(6-((1-methylpyrrolidin-3-yl)oxy)-3,4-dihydroisoquinolin-2(1H)yl)methanone], the IC50 was in the range of 100 to 1000 nM.

For the compound `CN1CC(Oc2ccc3c(c2)CCN(C(=O)c2c(O)cc(C(F)F)cc2OCc2ccccc2)C3)C1` [Example 4.66, (2-(Benzyloxy)-4-(difluoromethyl)-6-hydroxyphenyl)(6-((1-methylazetidin-3-yl)oxy)-3,4-dihydroisoquinolin-2(1H)-yl)methanone], the 50% inhibitory concentration (IC50) is 100 to 1000 nM.
